Structures can show the parent of a compound that is named as a salt.
Tests used:
S. coelicolor = test: Growth of S. coelicolor in CHELEX-washed, metal-free SMMC broth; format: cell-based, Streptomyces coelicolor
Procedure: Streptomyces coelicolor A3(2) was obtained from a third party supplier and the American Type culture collection (BAA-471). S. coelicolor A3(2) stocks were grown in Yeast-Extract Malt Extract broth (YEME) at 28° C. in 125 mL baffled flasks to an Optical Density at 600 nm (OD600) of ˜2.0. 20% glycerol was added to the cells in a 1:1 volume ratio and the cells were chilled on ice for 1 hour and placed at −80° C. still in the ice container. After 24 hours the cells were taken out of the ice container and at −80° C. Streptomyces coelicolor was grown in Streptomyces Minimal Medium (SMM) broth for functional characterization studies. SMM was prepared as previously reported (A17) with the following modifications; L-asparagine was replaced with ammonium sulfate (1 g L^−1), agar was eliminated and either [56 mM] sodium citrate (SMMC) or [56 mM] glucose (SMMG) was added as the sole carbon source. 50 ml of SMMC or SMMG broths were inoculated with 1 ml of S. coelicolor A3(2) stock solutions and grown for 48-72 hrs at 28° C. and 300 rpm shaking in 125 mL baffled flasks.
In addition, growth of S. coelicolor was arrested in CHELEX-washed, metal-free SMMC broth. This arrest could be prevented by addition of Fe^3+ (or Ca^2+) but not Mg^2+ or Ni^2+ to SMMC.

Sccit = test: 1,5-[^14C]-citrate transport assay in E. coli expressing Sccit; format: cell-based, Streptomyces coelicolor; settings: E. coli AA93 Δfec or JW4251-2 ΔfecA, induced with 0.5 mM IPTG for 1 hour
Procedure: E. coli AA93 and JW4251-2 cultures were grown in LB as described above. Protein expression for transport assays was induced at 30.0° C. with 0.5 mM Isopropyl β-D-thiogalacto-pyranoside (IPTG) at an OD600 of 1.0 for 1 hour. Subsequent flux assays followed the protocol described above for S. coelicolor and previous literature protocol (A19) with the following adaptations: cells were resuspended with 10 mL of PIPES buffer at 6.5 for all metals, and the transport assay was conducted at 37.0° C. except for iron (25° C.). Non-induced controls were included in all runs. Concentration of metal ion and citrate were chosen to maximize the formation of the desired metal-citrate complex (see Table 2). Experiments were performed using at least three independent cultures and each time point was collected in triplicate per run. Incubation of the metal ion (except for Fe^3+ as described above) and pre-complexation of the metal with [^14C]-citrate prior to cell addition yielded similar results. Experiments were also conducted, specifically for Fe^3+-citrate uptake, involving reducing the IPTG induction temperature in E. coli down to 4° C. (see FIG. 5). This was to observe actual uptake of the iron complex.

[1] = test system: Streptomyces coelicolor A3(2); test: 1,5-[^14C]-citrate transport assay in whole cells, Streptomyces coelicolor A3(2); format: cell-based; settings: for uptake of citrate in the presence of metal ion: S. coelicolor grown in broth with citrate as sole carbon source (SMMC), PIPES pH 6.5, 4.4 μM citrate; for uptake of citrate or metal-citrate species above background: S. coelicolor grown with glucose (SMMG), for Fe^3+ SMMG supplemented with 36 μM FeCl3.6H2O
Procedure: S. coelicolor A3(2) cells were grown from stocks for 48-72 hours at 28° C. and 300 rpm. Cells were collected via centrifugation and washed twice with 50 mM chelexed piperazine-N,N′-bis(2-ethanesulfonic acid) (PIPES) buffer, pH 6.5. Cells were resuspended to an OD of 0.2 after the second wash. 100 μl of cells were added to 2.2 ml microcentrifuge tubes. 5 μl of metal as the chloride salt was then added from the following stock solution concentrations (220 mM CaCl2 or BaCl2, 22 mM MgCl2, NiCl2, 22 mM CoCl2, PbCl2, MnCl2 and 1.65 mM FeCl3). Different molar amounts of metals were used to maximize metal-citrate complex formation as per MINTEQ calculations (A12) and successfully used in a previous literature report (A19). Cells were then incubated at 30° C. for 8 minutes with shaking. At 8 minutes, 5 μl of 96.8 μM 1,5-[^14C]-citrate was added to each sample to provide a final concentration of 4.4 μM. Uptake was stopped by addition of 2 mL of 0.1 M LiCl. This was followed by immediate filtration through cellulose nitrate filters ([…], 2.1 cm diameter). The filters were washed with 2×2 mL of 0.1 M LiCl solution and radioactivity was recorded using a liquid scintillation counter. In every experimental run, background radioactivity was gauged by adding 2 mls of LiCl prior to addition of the radiolabelled citrate. As before, cells were then immediately filtered, washed with 2×2 mL of 0.1 M LiCl and radioactivity monitored. This served as the background and was subtracted from final data. Experiments were performed using at least three independent cultures and each time point was collected in triplicate per run. 4×100 μl of cells from each run were filtered directly through pre-weighed cellulose nitrate filter paper and dried to determine average cell sample weight. Transport assays were also ‘stopped’ using 10 mM HEPES-glucose buffer instead of 0.1 M LiCl to check for the occurrence of ‘leaking’, which has been postulated to occur with the use of LiCl (A22). No noticeable difference was observed across multiple cultures tested in either S. coelicolor (or E. coli as described below).
It is important to note that pre-incubating the ‘free’ metal prior to addition of ^14[C]-citrate or synthesizing the complex and then adding it to the cells made no difference to experimental results consistent with the work reported by Lolkema et al. (A19), except in the case of Fe^3+. Transport assays with Fe^3+ were performed at 25.0° C. with the metal precomplexed to [^14C]-citrate to prevent Fe^3+ precipitation in the aqueous buffer. The temperature and pH change were accounted for in MINTEQ calculations. All experiments using precomplexed mixtures were filtered using a 0.45 μm syringe filter (Fisher Scientific) prior to addition to cells.

SMILES | prevention of growth arrest by addition of metal ion (S. coelicolor) | uptake of 1,5-[^14C]-citrate with metal ion cofactor (Sccit) | uptake of citrate in the presence of metal ion [1] | uptake of citrate or metal-citrate species above background [1] | Fe^3+-citrate uptake, iron absent from growth broth ([1]; S. coelicolor grown in SMM containing glucose, no iron in broth) | EGTA concentration at which citrate uptake decreased to zero ([1]; in the presence of 10 mM Ca^2+)
[Ni+2] [Ni^2+] | not | did not result in citrate uptake | no greater than the rate of uptake without metal ions | No uptake |  | 
O=C([O-])CC(O)(CC(=O)[O-])C(=O)[O-].[Fe+3] [Fe^3+-citrate] |  |  |  |  | greatly reduced | 
[Pb+2] [Pb^2+] |  | uptake of 1,5-[^14C]-citrate observed |  | No uptake |  | 
O=C(O)CC(O)(CC(=O)O)C(=O)O [free citrate] |  | not transported | no uptake | No uptake |  | 
O=C(O)CN(CCOCCOCCN(CC(=O)O)CC(=O)O)CC(=O)O [EGTA, ethylene glycol tetraacetic acid, reference compound] |  |  |  |  |  | over 1 mM
[Ca+2] [Ca^2+] | prevented | uptake of 1,5-[^14C]-citrate observed |  | No uptake |  | 
[Co+2] [Co^2+] |  | did not result in citrate uptake | no greater than the rate of uptake without metal ions | No uptake |  | 
[Ba+2] [Ba^2+] |  |  |  | No uptake |  | 
[Mg+2] [Mg^2+] | not | did not result in citrate uptake | no greater than the rate of uptake without metal ions | No uptake |  | 
[Fe+3] [Fe^3+] | prevented | uptake of 1,5-[^14C]-citrate observed | uptake was dependent on the presence | significant uptake |  | 

Reference: patent publication US8673320B2, “Metal-citrate transporter antigen from Streptomyces coelicolor and uses thereof” (Syracuse University, priority 2008, dated 2014)
